Source: the supplement of paper PMC10307832

How the values were obtained:
Assay in all cases: relative viability (nuclei count vs DMSO), 5 days (fraction); higher = more cells survive
[1] = compound: C1COCCN1C2=NC(=NC3=C2OC4=C3C=CC=N4)C5=CC(=CC=C5)NC(=O)C6=CN=C(C=C6)N + CS(=O)(=O)N1CCN(Cc2cc3nc(-c4cccc5[nH]ncc45)nc(N4CCOCC4)c3s2)CC1 [Pictilisib] (partner 1 µM)
Method in brief: (§1)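 Lung cancer cell lines in 1536-well plates got either a single drug or a fixed anchor-drug dose together with five library-drug doses (not always all listed) in √10 steps, by pin tool, on the day after seeding. Nuclei were counted after 5 days, and relative viability is the treated-to-vehicle ratio of nuclei counts. Values are medians of duplicate plates.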

Entinostat + Palbociclib = compound: Nc1ccccc1NC(=O)c1ccc(CNC(=O)OCc2cccnc2)cc1 [Entinostat] + CC(=O)c1c(C)c2cnc(Nc3ccc(N4CCNCC4)cn3)nc2n(C2CCCC2)c1=O [Palbociclib] (partner 0.5 µM)
Method in brief: as §1

Entinostat + AZD7762 = compound: Nc1ccccc1NC(=O)c1ccc(CNC(=O)OCc2cccnc2)cc1 [Entinostat] + NC(=O)Nc1cc(-c2cccc(F)c2)sc1C(=O)N[C@H]1CCCNC1 [AZD7762] (partner 0.2 µM)
Method in brief: as §1

Entinostat + Trametinib = compound: Nc1ccccc1NC(=O)c1ccc(CNC(=O)OCc2cccnc2)cc1 [Entinostat] + CC(=O)Nc1cccc(-n2c(=O)n(C3CC3)c(=O)c3c(Nc4ccc(I)cc4F)n(C)c(=O)c(C)c32)c1 [Trametinib] (partner 0.02 µM)
Method in brief: as §1

| Cell Line | relative viability ([1]; first compound 0.02 µM) | relative viability ([1]; first compound 0.06325 µM) | relative viability ([1]; first compound 0.2 µM) | relative viability ([1]; first compound 0.6325 µM) | relative viability ([1]; first compound 2 µM) | relative viability (Entinostat + Palbociclib; first compound 0.02 µM) | relative viability (Entinostat + Palbociclib; first compound 0.06325 µM) | relative viability (Entinostat + Palbociclib; first compound 0.2 µM) | relative viability (Entinostat + Palbociclib; first compound 0.6325 µM) | relative viability (Entinostat + Palbociclib; first compound 2 µM) | relative viability (Entinostat + AZD7762; first compound 0.02 µM) | relative viability (Entinostat + AZD7762; first compound 0.06325 µM) | relative viability (Entinostat + AZD7762; first compound 0.2 µM) | relative viability (Entinostat + AZD7762; first compound 0.6325 µM) | relative viability (Entinostat + AZD7762; first compound 2 µM) | relative viability (Entinostat + Trametinib; first compound 0.02 µM) | relative viability (Entinostat + Trametinib; first compound 0.06325 µM) | relative viability (Entinostat + Trametinib; first compound 0.2 µM) | relative viability (Entinostat + Trametinib; first compound 0.6325 µM) | relative viability (Entinostat + Trametinib; first compound 2 µM) |
| --- | --- | --- | --- | --- | --- | --- | --- | --- | --- | --- | --- | --- | --- | --- | --- | --- | --- | --- | --- | --- |
| EKVX | 0.408 | 0.408 | 0.44 | 0.379 | 0.439 | 0.467 | 0.434 | 0.343 | 0.326 | 0.242 | 0.763 | 0.645 | 0.645 | 0.416 | 0.265 | 0.364 | 0.344 | 0.261 | 0.252 | 0.227 |
| EMC-BAC-2 | 0.495 | 0.526 | 0.516 | 0.523 | 0.465 | 0.532 | 0.468 | 0.443 | 0.388 | 0.294 | 1.17 | 0.987 | 0.881 | 0.441 | 0.457 | 0.868 | 0.713 | 0.578 | 0.489 | 0.383 |
| EPLC-272H | 0.292 | 0.297 | 0.264 | 0.308 | 0.288 | 0.406 | 0.334 | 0.364 | 0.282 | 0.215 | 0.339 | 0.224 | 0.141 | 0.137 | 0.14 | 0.351 | 0.342 | 0.319 | 0.27 | 0.182 |
| H3255 | 0.417 | 0.495 | 0.458 | 0.505 | 0.432 | 0.339 | 0.345 | 0.348 | 0.301 | 0.27 | 1 | 0.901 | 0.756 | 0.539 | 0.333 | 0.681 | 0.57 | 0.528 | 0.402 | 0.295 |
| HARA | 0.273 | 0.319 | 0.329 | 0.326 | 0.291 | 0.301 | 0.298 | 0.258 | 0.272 | 0.266 | 0.37 | 0.229 | 0.34 | 0.215 | 0.244 | 0.903 | 0.983 | 0.696 | 0.647 | 0.48 |
| HCC-15 | 0.735 | 0.76 | 0.713 | 0.742 | 0.527 | 0.734 | 0.674 | 0.572 | 0.454 | 0.273 | 1.19 | 1.2 | 1.26 | 0.774 | 0.457 | 0.392 | 0.323 | 0.245 | 0.221 | 0.161 |
| HCC-44 | 0.508 | 0.607 | 0.65 | 0.506 | 0.399 | 1.01 | 0.833 | 0.903 | 0.84 | 0.826 | 1.02 | 0.876 | 1.02 | 0.995 | 0.774 | 1.07 | 0.895 | 0.81 | 0.735 | 0.625 |
| HCC-78 | 0.179 | 0.211 | 0.289 | 0.16 | 0.0668 | 0.523 | 0.462 | 0.491 | 0.468 | 0.531 | 0.609 | 0.687 | 0.466 | 0.327 | 0.254 | 0.706 | 0.662 | 0.505 | 0.377 | 0.253 |
